In US20260184707A1, “PHARMACEUTICAL COMPOUNDS FOR THE TREATMENT OF COMPLEMENT MEDIATED DISORDERS” (ALEXION PHARMACEUTICALS, INC., priority 2022, published 2026) one finds IC50 data, which are given here for 19 compounds.

The assay concerns the target T1, Human complement C1s enzyme (Homo sapiens, UniProt P09871).
T1 construct: purified from human serum, Complement Technology, Inc; purchased Complement Technology, Inc; host or cells: human serum (plasma-derived native protein)
T1 sequence (P09871 438-688 limits assumed): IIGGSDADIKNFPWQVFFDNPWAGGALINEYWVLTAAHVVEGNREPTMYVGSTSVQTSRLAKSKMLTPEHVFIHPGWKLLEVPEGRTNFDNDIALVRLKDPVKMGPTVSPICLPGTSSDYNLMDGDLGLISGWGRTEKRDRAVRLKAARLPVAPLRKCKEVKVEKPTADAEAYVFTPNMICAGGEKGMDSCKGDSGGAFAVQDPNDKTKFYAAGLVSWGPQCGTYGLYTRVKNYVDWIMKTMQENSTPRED
T1 sequence (P09871 16-437 partner limits assumed): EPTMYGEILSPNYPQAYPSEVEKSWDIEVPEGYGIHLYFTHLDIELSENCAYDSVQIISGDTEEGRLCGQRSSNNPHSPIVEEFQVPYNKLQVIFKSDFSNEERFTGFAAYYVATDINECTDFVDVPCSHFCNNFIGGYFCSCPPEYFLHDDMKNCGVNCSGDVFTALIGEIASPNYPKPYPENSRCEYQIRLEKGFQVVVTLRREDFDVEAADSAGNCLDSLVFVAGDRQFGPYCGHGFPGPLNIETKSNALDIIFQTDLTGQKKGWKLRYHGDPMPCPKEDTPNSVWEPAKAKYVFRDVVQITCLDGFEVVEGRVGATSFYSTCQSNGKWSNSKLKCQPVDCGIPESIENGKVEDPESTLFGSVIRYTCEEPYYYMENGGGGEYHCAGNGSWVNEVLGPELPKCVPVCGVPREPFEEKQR
In words: Human C1s enzyme assay. The assay is classed as biochemical. Particulars: human complement C1s enzyme 1.16 nM, substrate Z-L-Lys-SBzl, A405; read-out: IC50 (Stars). The essentials: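 Thioesterase activity followed colorimetrically (DTNB, A405, 30-s reads) using 100 μM Z-L-Lys-SBzl substrate. Enzyme, human serum-derived C1s at 1.16 nM final, was incubated with test compound for 5 min, room temperature, pH 7.5 Tris buffer with 1 M NaCl. Rate-versus-concentration data fitted by nonlinear regression for IC50.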

Consider `O=C(Cn1c(-c2ccccc2)ncc(NCc2ccc3oc4ccccc4c3c2)c1=O)NCc1cc2c(s1)CNCC2` [Compound 143, 2-(5-((dibenzo[b,d]furan-2-yl-methyl)amino)-6-oxo-2-phen-ylpyrimidin-1(6H)-yl)-N-((4,5,6,7-tetrahydrothieno [2,3-c]pyridin-2-yl)methyl)-acetamide], for which the IC50 is under 100 nM.

With `O=C(Cn1c(-c2ccccc2)ncc(NCc2ccc3oc4ccccc4c3c2)c1=O)NCc1cc2cnccn2c1` [Compound 144, 2-(5-((dibenzo[b,d]furan-2-ylmethyl)amino)-6-oxo-2-phenylpyrimidin-1(6H)-yl)-N-(pyrrolo[1,2-a]pyrazin-7-ylmethyl)acetamide], the IC50 is over 1000 nM.

As for `O=C(Cn1c(-c2ccc(NC(=O)CO)cc2)ncc(NCc2ccc3oc4ccccc4c3c2)c1=O)NCc1cc2cnccc2[nH]1` [Compound 147, N-((1H-pyrrolo[3,2-c]pyridine-2-yl)methyl)-2-(5-((dibenzo[b,d]furan-2-ylmethyl)amino)-2-(4-(2-hydroxyacetamido)phenyl)-6-oxopyrimidin-1(6H)-yl)acetamide], the IC50 was under 100 nM.

`O=C(Cn1c(-c2ccc(N3CCCC3=O)cc2)ncc(NCc2ccc3oc4ccccc4c3c2)c1=O)NCc1cc2cnccc2[nH]1` [Compound 153, N-((1H-pyrrolo[3,2-c]pyridin-2-yl)methyl)-2-(5-((dibenzo [b,d]furan-2-ylmethyl)amino)-6-oxo-2-(4-(2-oxopyrrolidin-1-yl)phenyl)pyrimidin-1(6H)-yl)acetamide]: the IC50 was under 100 nM.

For the compound `O=C(Cn1c(-c2ccc(OCCOc3ccc(F)cc3)cc2)ncc(NCc2ccc3oc4ccccc4c3c2)c1=O)NCc1cc2cnccc2[nH]1` [Compound 154, N-((1H-pyrrolo[3,2-c]pyridine-2-yl)methyl)-2-(5-((dibenzo[b,d]furan-2-ylmethyl)amino)-2-(4-(2-(4-fluorophenoxy)ethoxy)phenyl)-6-oxopyrimidin-1(6H)-yl)acetamide], the IC50 is under 100 nM.

For `O=C(Cn1c(-c2ccc(OCc3ccccc3)cc2)ncc(NCc2ccc3oc4ccccc4c3c2)c1=O)NCc1cc2cnccc2[nH]1` [Compound 155, N-((1H-pyrrolo[3,2-c]pyridin-2-yl)methyl)-2-(2-(4-(benzyl-oxy)phenyl)-5-((dibenzo[b,d]furan-2-ylmethyl)amino)-6-oxopyrimidin-1(6H)-yl)acet-amide], the IC50 is under 100 nM.

Consider `O=C(Cn1c(-c2ccccc2)ncc(NC(=O)c2ccc(-c3ccc(OC(F)(F)F)cc3)cc2)c1=O)NCc1cc2cnccc2[nH]1` [Compound 164, N-(1-(2-(((1H-pyrrolo[3,2-c]pyridin-2-yl)methyl)amino)-2-oxoethyl)-6-oxo-2-phenyl-1,6-dihydropyrimidin-5-yl)-4′-(trifluoromethoxy)-[1,1′-biphenyl]-4-carboxamide], for which the IC50 was under 100 nM.

Take `O=C(Cn1c(-c2ccccc2)ncc(NC(=O)c2cccc(-c3ccccc3)c2)c1=O)NCc1cc2cnccc2[nH]1` [Compound 165, N-(1-(2-(((1H-pyrrolo[3,2-c]pyridin-2-yl)methyl)amino)-2-oxoethyl)-6-oxo-2-phenyl-1,6-dihydropyrimidin-5-yl)-[1,1′-biphenyl]-3-carboxamide]: the IC50 is under 100 nM.

In the case of `O=C(Cn1c(-c2ccccc2)ncc(NC(=O)c2ccc(-c3ccccc3)cc2F)c1=O)NCc1cc2cnccc2[nH]1` [Compound 166, N-(1-(2-(((1H-pyrrolo[3,2-c]pyridine-2-yl)methyl)amino)-2-oxoethyl)-6-oxo-2-phenyl-1,6-dihydropyrimidin-5-yl)-3-fluoro-[1,1′-biphenyl]-4-carboxamide], the half-inhibitory concentration (IC50) is under 100 nM.

For `O=C(Cn1c(-c2ccccc2)ncc(NC(=O)c2cccc(-c3nccs3)c2)c1=O)NCc1cc2cnccc2[nH]1` [Compound 167, N-(1-(2-(((1H-pyrrolo[3,2-c]pyridine-2-yl)methyl)amino)-2-oxoethyl)-6-oxo-2-phenyl-1,6-dihydropyrimidin-5-yl)-3-(thiazol-2-yl)benzamide], the 50% inhibitory concentration (IC50) was under 100 nM.

Consider `O=C(Cn1c(-c2ccccc2)ncc(NC(=O)c2cnc(-c3ccccc3)[nH]2)c1=O)NCc1cc2cnccc2[nH]1` [Compound 168, N-(1-(2-(((1H-pyrrolo[3,2-c]pyridin-2-yl)methyl)amino)-2-oxoethyl)-6-oxo-2-phenyl-1,6-dihydropyrimidin-5-yl)-2-phenyl-1H-imidazole-5-carbox-amide], for which the IC50 is under 100 nM.

For `O=C(Cn1c(-c2ccccc2)ncc(NC(=O)c2ncc(-c3ccccc3)[nH]2)c1=O)NCc1cc2cnccc2[nH]1` [Compound 169, N-(1-(2-(((1H-pyrrolo[3,2-c]pyridin-2-yl)methyl)amino)-2-oxoethyl)-6-oxo-2-phenyl-1,6-dihydropyrimidin-5-yl)-5-phen-yl-1H-imidazole-2-carbox-amide], the 50% inhibitory concentration (IC50) was under 100 nM.

In the case of `O=C(Cn1c(-c2ccccc2)ncc(NC(=O)c2ncc(-c3ccccc3)s2)c1=O)NCc1cc2cnccc2[nH]1` [Compound 170, N-(1-(2-(((1H-pyrrolo[3,2-c]pyridin-2-yl)methyl)amino)-2-oxoethyl)-6-oxo-2-phenyl-1,6-dihydropyrimidin-5-yl)-5-phen-ylthiazole-2-carboxamide], the IC50 was under 100 nM.

With `O=C(Cn1c(-c2ccccc2)ncc(NC(=O)c2ncc(-c3ccccc3)o2)c1=O)NCc1cc2cnccc2[nH]1` [Compound 171, N-(1-(2-(((1H-pyrrolo[3,2-c]pyridine-2-yl)methyl)amino)-2-oxoethyl)-6-oxo-2-phenyl-1,6-dihydropyrimidin-5-yl)-5-phenyloxazole-2-carboxamide], the IC50 is under 100 nM.

With `O=C(Cn1c(-c2ccccc2)ncc(NC(=O)c2ccc(-c3nccs3)cc2)c1=O)NCc1cc2cnccc2[nH]1` [Compound 172, N-(1-(2-(((1H-pyrrolo[3,2-c]pyridine-2-yl)methyl)amino)-2-oxoethyl)-6-oxo-2-phenyl-1,6-dihydropyrimidin-5-yl)-4-(thiazol-2-yl)benzamide], the IC50 is under 100 nM.

As for `O=C(Cn1c(-c2ccccc2)ncc(NC(=O)c2ccc(-c3cnc[nH]3)cc2)c1=O)NCc1cc2cnccc2[nH]1` [Compound 174, N-(1-(2-(((1H-pyrrolo[3,2-c]pyridine-2-yl)methyl)amino)-2-oxoethyl)-6-oxo-2-phenyl-1,6-dihydropyrimidin-5-yl)-4-(1H-imidazol-5-yl)benzamide], the IC50 is under 100 nM.

`O=C(Cn1c(-c2ccccc2)ncc(NC(=O)c2ccc(-c3ncc[nH]3)cc2)c1=O)NCc1cc2cnccc2[nH]1` [Compound 175, N-(1-(2-(((1H-pyrrolo[3,2-c]pyridin-2-yl)methyl)amino)-2-oxoethyl)-6-oxo-2-phenyl-1,6-dihydropyrimidin-5-yl)-4-(1H-imidazol-2-yl)benzamide]: the IC50 was under 100 nM.

In the case of `O=C(Cn1c(-c2ccccc2)cnc(NCc2ccc3oc4ccccc4c3c2)c1=O)NCc1cc2cnccc2[nH]1` [Compound 176, N-((1H-pyrrolo[3,2-c]pyridin-2-yl)methyl)-2-(3-((dibenzo [b,d]furan-2-ylmethyl)amino)-2-oxo-6-phenylpyrazin-1(2H)-yl)acetamide], the 50% inhibitory concentration (IC50) was under 100 nM.

Take `O=C(Cn1c(-c2ccccc2)cnc(NC(=O)c2ccc(Oc3ccccc3)cc2)c1=O)NCc1cc2cnccc2[nH]1` [Compound 177, N-(4-(2-(((1H-pyrrolo[3,2-c]pyridin-2-yl)methyl)amino)-2-oxoethyl)-3-oxo-5-phenyl-3,4-dihydropyrazin-2-yl)-4-phen-oxybenzamide]: the 50% inhibitory concentration (IC50) was under 100 nM.
